We go through two compounds from US6743436B1, “Anesthetic composition for intravenous injection comprising propofol” (Kuhnil Pharm. Co., Ltd., priority 1999, dated 2004).

One data set relates to albino rat. Nature of the data set: Experiment 7: hemolysis after intravenous injection. It counts as in vivo. The conditions noted are these: for Af (absorbance of released hemoglobin at 540 nm) / Hemolysis: i.v. over one minute, arterial blood. As for the experimental part: To determine the hemolysis of the formulation of Example 6, albino rat was incised with scissor at the upper part of left femoral region, at which each of vein and artery was cannulated, and then 10 mg/kg of the formulated drug was intravenously injected over one minute. After 0, 5, 10, 15, 30, 45 and 60 minutes, blood was collected from femoral artery in an amount of 100 μl each time. Blood was obtained after heparin-physiological saline and some blood filled in the catheter were removed few, seconds before collecting blood each time. After blood was collected, a small amount of heparin-physiological saline was introduced into the catheter connecting tube to prevent blood coagulation. 100 μl of the collected blood were mixed with 500 μl of physiological saline and then centrifuged with 3000 rpm for 10 minutes. 100 μl of the supernatant were transferred into microplate and the absorbance of released hemoglobin was measured at 540 nm. Hemolysis (%) was calculated according to the following equation. The control group used 70% propylene glycol (PG) solution.
In the above equation, A100 is the absorbance at the time of 100% hemolysis (100 μl of blood was mixed with 500 μl of water); A0 is the absorbance at the time of 0% hemolysis as the blank (Before injection of the drug, normal blood was mixed with 500 μl of physiological saline for the blank test), and Af is the absorbance of each specimen.

The conditions of data set [1]: background statement; cited from earlier work.

As to `CC(O)CO` (stereo not drawn) [70% PG, propylene glycol], the “Af (absorbance of released hemoglobin at 540 nm)” value in the data set on albino rat (5 min.) is reported as 0.086; in the data set on albino rat (10 min.), 0.091; in the data set with albino rat (15 min.), 0.067; in the data set on albino rat (30 min.), 0.038; with albino rat (45 min.), 0.047; in the data set on albino rat (60 min.), 0.041. Also, the “Af (absorbance of released hemoglobin at 540 nm)” value in the data set with albino rat (initial) was determined as 0.081. Besides, the Hemolysis in the data set on albino rat (5 min.) stood at 1.94%; with albino rat (10 min.), 2.06%; in the data set on albino rat (15 min.), 1.47%; in the data set on albino rat (30 min.), 0.76%; in the data set on albino rat (45 min.), 0.98%; in the data set with albino rat (60 min.), 0.84%. Moreover, the Hemolysis with albino rat (initial) turned out to be 1.82%. Moreover, in the data set on albino rat (i.v., 0-60 min), the “absorbance relative to the formulation of Example 6” value is 80-90 times. Moreover, the “hemolysis (in words)” value in the data set with albino rat (i.v., 0-60 min) is listed as “causes hemolysis”.
Regarding `CC(C)c1cccc(C(C)C)c1O` [propofol, 2,6-diisopropylphenol], in data set [1], the “octanol water partition coefficient” value is listed as 4.33 and the pKa (commonly the pH at which an ionisable group is half protonated) is on record as 10.4.
